Data taken from patent publication US20070219212A1, “Pyranouidole Derivatives and the Use Thereof for the Treatment of Hepatitis C Virus Infection or Disease” (priority 2004, published 2007).
Like-named read-outs stand apart in the source and are kept apart here.

Tests used:
[1] = biological target: T1, NS5B from the BK strain (genotype 1b) (Hepatitis C virus genotype 1b, UniProt P26663); assay: Hepatitis C polymerase (NS5B, BK strain) inhibition, radioactive filter assay; type: biochemical; settings: NS5B BK strain (genotype 1b)
T1 construct: NS5B from the BK strain (genotype 1b) is expressed in E coli as a protein in which the 21 C-terminal amino acids are replaced; made in house; host or cells: E. coli
T1 sequence (P26663 2420-2989): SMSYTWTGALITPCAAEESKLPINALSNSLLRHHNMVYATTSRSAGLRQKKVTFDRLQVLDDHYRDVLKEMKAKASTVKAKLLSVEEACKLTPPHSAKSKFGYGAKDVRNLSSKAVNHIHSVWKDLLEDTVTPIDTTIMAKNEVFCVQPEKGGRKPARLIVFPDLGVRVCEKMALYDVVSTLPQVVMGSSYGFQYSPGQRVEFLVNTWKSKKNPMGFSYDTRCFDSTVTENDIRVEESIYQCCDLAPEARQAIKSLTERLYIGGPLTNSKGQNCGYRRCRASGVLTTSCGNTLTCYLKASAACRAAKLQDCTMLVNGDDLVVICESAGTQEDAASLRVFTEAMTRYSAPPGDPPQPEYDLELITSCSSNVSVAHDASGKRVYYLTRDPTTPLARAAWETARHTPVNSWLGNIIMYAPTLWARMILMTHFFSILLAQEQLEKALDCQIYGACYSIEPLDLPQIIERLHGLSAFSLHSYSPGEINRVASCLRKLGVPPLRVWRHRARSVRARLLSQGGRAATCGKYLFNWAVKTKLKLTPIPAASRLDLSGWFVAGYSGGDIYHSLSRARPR
From the text: (§1) The ability of the compounds of the present invention to inhibit Hepatitis C Polymerase was established by the following experimental procedure:
NS5B from the BK strain (genotype 1b) is expressed in E coli as a protein in which the 21 C-terminal amino acids are replaced with a short linker and a hexahistidine tag ([…]). The purified protein is mixed with radioactive nucleotides and allowed to replicate a heteropolymeric RNA substrate, primed by an endogenous short hairpin, resulting in an approximately 760 nt product. The radioactive product is captured on a filter and quantitated after removal of the unincorporated nucleotides.
(§2) • 0.5M Na Phosphate buffer. Per liter, weigh 134 gr Na2HPO4.7H2O, add water to 900 ml. Adjust pH to 7.0 with phosphoric acid. Top off with water to 1 L. • Dilute nucleotides 1:1000 to 10 μM (GTP and CTP) or 1:100 to 100 μM (ATP and UTP) into RNase free water. Procedure: • (1) Compounds 10 μl at […] in 15% dimethylsulfoxide (DMSO) When starting from 100 μg/ml compound stock in 1% DMSO: Dispense 5 μl 30% DMSO per well Dispense 5 μl compound (100 μg/ml) per well. When starting from 50 μg/ml compound stock in 15% DMSO: Add 10 μl compound per well.
(§3) Add 20 μl enzyme mix into each well of the assay plate. Incubate compound and enzyme at room temperature for 15 minutes • (3) Template mix—prepare ahead
(§4) Spin down a tube of RNA (5 μg/tube stored in 75% ethanol and 0.3 M sodium acetate) in a microcentrifuge for 20 minutes at 4° C. One tube is enough for 1-1.5 plates. Remove as much ethanol from the tube as possible by inverting the tube. Be gentle, pellet RNA may not adhere to the tube. Vacuum dry the RNA. Resuspend the RNA by adding 1 ml of DEPC water, close the cap of the tube tightly. To dissolve RNA, incubate RNA solution on ice for ˜60 minutes and gently vortex. Spin briefly to ensure all RNA solution is down to the bottom of the tube before opening cap. Gently transfer RNA solution into a 5 ml or larger tube. Add another 3 ml of DEPC water (total 4 ml of volume).
(§5) Add the following volumes of reagents
(§6) Add 20 μl template mix per reaction (i.e. 20 ng of pOF per reaction or ˜3 nM) • (4) Incubate reaction at room temperature (22-25° C.) for 2 hours. • (5) Stop reaction by adding 50 μl of 170 mM EDTA.
(§7) Final concentration of EDTA is 85 mM. • (6) Prewet filters of Millipore multiscreen assay plate by adding 200 μl of 0.5 M sodium phosphate buffer, pH 7.0 into each well. Let stand at room temperature for 2-3 minutes. • (7) Place the multiscreen filter plate onto a Millipore Manifold and turn on vacuum to allow buffer to flow through. Turn off vacuum. Transfer 80 μl of the reaction product into each well of the filter plate. Let stand for 2-3 minutes. Turn on vacuum to filter reaction product. • (8) Turn off vacuum. Add 200 μl of 0.5 M sodium phosphate buffer, pH 7.0 into each well to wash filter. Turn on vacuum.
(§8) Repeat step (8) three more times. • (9) Remove polypropylene bottom. Spot dry filter at the bottom with paper towel. Air dry filter plate on a bench for 1 hour. Add 40 μl Super Mix scintillant. Seal top of the plate with a tape. Place plate into a Packard carrier or micro-beta carrier. • (10) Count plate using a Packard Topcount or micro-beta counter. Count (for example using Program 10) for ^33P in Top count or ^33P program in micro-beta.
(§9) See, Ferrari et al. 1999. J. Virology 73:1649-1654: “Characterization of soluble Hepatitis C virus RNA-dependent RNA polymerase expressed in E. coli and Takamizawa et al. 1991” and J. Virology 65:1105-1113: “Structure and characterization of the Hepatitis C virus genome isolated from human carriers,” both references are hereby incorporated by reference.

[2] = biological target: BB7 RNA-dependent RNA polymerase hepatitis C virus protein (Con1 HCV sequence) (Hepatitis C virus genotype 1b, UniProt Q9WMX2); assay: Hepatitis C polymerase (BB7) inhibition; type: biochemical
BB7 RNA-dependent RNA polymerase hepatitis C virus protein (Con1 HCV sequence), sequence (Q9WMX2 2420-3010): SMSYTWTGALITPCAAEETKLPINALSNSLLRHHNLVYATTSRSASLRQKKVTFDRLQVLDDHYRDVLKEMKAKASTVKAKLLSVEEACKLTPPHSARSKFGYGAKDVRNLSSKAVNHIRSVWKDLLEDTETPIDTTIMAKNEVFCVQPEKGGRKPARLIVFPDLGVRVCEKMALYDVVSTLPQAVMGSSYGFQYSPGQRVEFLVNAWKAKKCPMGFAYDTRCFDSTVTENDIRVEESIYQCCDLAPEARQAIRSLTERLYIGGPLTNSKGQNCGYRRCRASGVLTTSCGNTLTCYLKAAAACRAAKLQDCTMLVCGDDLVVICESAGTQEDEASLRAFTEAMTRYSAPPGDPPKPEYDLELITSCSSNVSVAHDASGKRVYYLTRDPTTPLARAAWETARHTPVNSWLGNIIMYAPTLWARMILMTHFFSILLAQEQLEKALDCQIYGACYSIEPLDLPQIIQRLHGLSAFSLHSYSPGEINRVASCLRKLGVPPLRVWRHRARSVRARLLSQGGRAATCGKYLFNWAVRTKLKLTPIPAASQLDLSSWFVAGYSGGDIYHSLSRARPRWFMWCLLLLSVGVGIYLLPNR
From the text: For purposes of this invention, the term “BB7” denotes an RNA-dependent RNA polymerase hepatitis C virus protein sequence which is derived from HCV replicon. A discussion of BB7 and related technology can be found in Blight, K. et al. (2000) Science 290:1972-1974. BB7 can be licensed from Apath, LLC (893 North Warson Road, Saint Louis Mo. 63141, USA). BB7 is also referred to as Con1 HCV sequence and discussions of Con1 can be found in the following references: Lohmann, V. et al. (1999) Science 285:110-113; Pietschmann, T. et al. (2001) J. Virol. […]:1252-1264; Lohmann, V. et al. (2001) J. Virol. 75:1437-1449.
as §1, §2, §3, §4, §5, §6, §7, §8, §9

[3] = BB7 (Con1) NS5B, read-out: BB7 IC50

In the case of `CCCC1(CC(=O)O)OCCc2c1[nH]c1c(C)c(OCc3cccnc3N)cc(C#N)c21` (stereo not drawn) [Example 51], the IC50 [1] is reported as less than 500 nM and the IC50 [2] is reported as less than 500 nM.

`CCCC1(CC(=O)O)OCCc2c1[nH]c1c(C)c(OCc3ccnc(C)c3)cc(C#N)c21` (stereo not drawn) [Example 52] gave an IC50 [1] of less than 500 nM and an IC50 [2] of less than 500 nM.

`CCC[C@]1(CC(=O)O)OCCc2c1[nH]c1c(C)c(OCc3ccnc(C)c3)cc(C#N)c21` [Example 53] was tested, and the IC50 [1] was less than 500 nM and the IC50 [2] was less than 500 nM.

Work on `CCCC1(CC(=O)O)OCCc2c1[nH]c1c(C)c(OCc3ccnc(N)c3)cc(C#N)c21` (stereo not drawn) [Example 54] yielded an IC50 [1] of less than 500 nM and an IC50 [2] of less than 500 nM.

Molecule `CCCC1(CC(=O)O)OCCc2c1[nH]c1c(C)c(OCc3cc(C)on3)cc(C#N)c21` (stereo not drawn) [Example 56] has an IC50 [1] of less than 500 nM and an IC50 [2] of less than 500 nM.

`CCC[C@@]1(CC(=O)O)OCCc2c1[nH]c1c(C)c(OCc3cc(C)on3)cc(C#N)c21` [Example 57] gave an IC50 [1] greater than 5000 nM and an IC50 [2] of 500 to 5000 nM.

`CCCC1(CC(=O)O)OCCc2c1[nH]c1c(C)c(OCCN3CCCC3)cc(C#N)c21` (stereo not drawn) [Example 58] gave an IC50 [1] of 500 to 5000 nM and an IC50 [2] of 500 to 5000 nM.

`CCCC1(CC(=O)O)OCCc2c1[nH]c1c(C)c(OCc3cccc(N)n3)cc(C#N)c21` (stereo not drawn) [Example 59] was tested, and the IC50 [1] was less than 500 nM and the IC50 [2] was less than 500 nM.

With `CCCC1(CC(=O)O)OCCc2c1[nH]c1c(C)c(OCc3nccs3)cc(C#N)c21` (stereo not drawn) [Example 60] the IC50 [1] was less than 500 nM and the IC50 [2] was less than 500 nM.

With `CCCC1(CC(=O)O)OCCc2c1[nH]c1c(C)c(OCc3ccnc(C(=O)O)c3)cc(C#N)c21` (stereo not drawn) [Example 61] the IC50 [1] was less than 500 nM and the IC50 [2] was less than 500 nM.

`CCCC1(CC(=O)O)OCCc2c1[nH]c1c(C)c(OCc3cccnc3C)cc(C#N)c21` (stereo not drawn) [Example 62] was tested, and the IC50 [1] was less than 500 nM and the IC50 [2, 3] was less than 500 nM.

In the case of `CCCC1(CC(=O)O)OCCc2c1[nH]c1c(C)c(OCc3cccc(C)n3)cc(C#N)c21` (stereo not drawn) [Example 63], the IC50 [1] is reported as less than 500 nM and the IC50 [2, 3] is reported as less than 500 nM.

For `CCCC1(CC(=O)O)OCCc2c1[nH]c1c(C)c(OCc3cnccn3)cc(C#N)c21` (stereo not drawn) [Example 64], the IC50 [1] was less than 500 nM and the IC50 [2] was less than 500 nM.

`CCCC1(CC(=O)O)OCCc2c1[nH]c1c(C)c(OCc3ccnc(C(N)=O)c3)cc(C#N)c21` (stereo not drawn) [Example 65] gave an IC50 [1] of less than 500 nM and an IC50 [2] of less than 500 nM.

`CCCC1(CC(=O)O)OCCc2c1[nH]c1c(C)c(OCc3cc(C)nn3C)cc(C#N)c21` (stereo not drawn) [Example 66] was tested, and the IC50 [1] was less than 500 nM and the IC50 [2] was less than 500 nM.

Molecule `CCCC1(CC(=O)O)OCCc2c1[nH]c1c(C)c(OCc3ccc(N4CCOCC4)nc3)cc(C#N)c21` (stereo not drawn) [Example 68] has an IC50 [1] of less than 500 nM and an IC50 [2] of less than 500 nM.

With `CCCC1(CC(=O)O)OCCc2c1[nH]c1c(C)c(OCc3ccc(N)nc3)cc(C#N)c21` (stereo not drawn) [Example 69] the IC50 [1] was less than 500 nM and the IC50 [2] was less than 500 nM.

`CCCC1(CC(=O)O)OCCc2c1[nH]c1c(C)c(OCc3ccc(C)nc3)cc(C#N)c21` (stereo not drawn) [Example 70] showed an IC50 [1] of less than 500 nM and an IC50 [2] of less than 500 nM.

`CCCC1(CC(=O)O)OCCc2c1[nH]c1c(C)c(OCc3cc[n+]([O-])cc3)cc(C#N)c21` (stereo not drawn) [Example 71] gave an IC50 [1] of less than 500 nM and an IC50 [2] of less than 500 nM.

With `CCCC1(CC(=O)O)OCCc2c1[nH]c1c(C)c(OCc3csc(C(C)C)n3)cc(C#N)c21` (stereo not drawn) [Example 72] the IC50 [1] was less than 500 nM and the IC50 [2, 3] was less than 500 nM.

`CCCC1(CC(=O)O)OCCc2c1[nH]c1c(C)c(OCc3ccc(C(F)(F)F)nc3)cc(C#N)c21` (stereo not drawn) [Example 73] showed an IC50 [1] of less than 500 nM and an IC50 [2] of less than 500 nM.
